From US20120039917A1, “IMMUNO[…]” (priority 2008, published 2012) come the findings set out here.

For one data set, the system named is proliferating T cells. The data set can be described thus: Cell proliferation measured by MTT reduction. In kind it is cell-based. The following applies: Homo sapiens, 48 h incubation, read-out: IC50 inhibition of MTT reduction (proliferation). As to the method: (§1) Immediately prior to experiments, frozen PBMC were thawed, centrifuged at 1400 rpm in a Multifuge 3 s (Heraeus) for 4 min, washed in RPMI+10% FCS and resuspended in T cell medium (RPMI+10% FCS+10 μM 2-mercaptoethanol (Sigma), 1×glutamine, 1×non-essential amino acids (Gibco)) at 2×10^6 cells/mL. Cells (2×10^5) were activated by adding 10 μg/mL anti-CD3 and 5 μg/mL anti-CD28 and 20 U/mL IL-2 per well. Cells were incubated at 37° C. in a humidified incubator maintained at 5% CO2 for 4 to 5 days until large numbers of large spherical aggregates or “bursts” of lymphocytes were observed. Activated proliferating T cells were pooled from the wells for further experiments. Resting T cells were incubated for the same length of time but in the presence of 20 U/mL IL-2 only.
(§2) MTT reduction was measured as previously described (Berridge et al., 1996) in a microplate format as follows: exponentially growing cells were centrifuged at 1400 rpm in a Multifuge 3 s (Heraeus) for 4 min, washed and resuspended in HBSS buffer. […] After 2 h, 100 μL of lysing buffer was added and formazan crystals dissolved by manual pipetting using a multichannel pipette before measuring A570 in a BMG FLUOstar OPTIMA plate reader. […]
On the technique in general: Formazan colour is commonly taken as a measure of viable cells.

The subject of another data set is resting T cells. The data set can be described thus: Cell proliferation measured by MTT reduction. In kind it is cell-based. Conditions: Homo sapiens, 48 h incubation, read-out: IC50 inhibition of MTT reduction (proliferation). As for the experimental part:
as §1, §2

A further data set has as its system responder T cells. The data set can be described thus: HLA-mismatched mixed lymphocyte reaction in the presence of PXD. Type of data set: cell-based, human. The following applies: 10 μM PXD on day 0, analysed day 8. As to the method:
(§3) Mixed lymphocyte reactions were established using unrelated, HLA-mismatched healthy donor blood samples as donor/recipient pairs. Stimulator PBMC were γ-irradiated with 30 Gy as described previously (Zenhausen et al., 2007). Responder PBMC were washed twice in PBS, 5,6-carboxy-succinimidyl-fluorescein-ester (CSFE)-labelled (1.25 μM, Sigma) at room temperature for 5 minutes, and washed twice in PBS/10% FCS. Two hundred thousand stimulator and responder cells were added per well at a 1:1 ratio in a 96 U-well plate in T cell medium. Stimulator and responder cells were also plated alone, and all cells were cultured in a 5% CO2, 37° C. humidified incubator. Viability, CFSE fluorescence and cell surface antigen expression were determined by flow cytometry. Cells were washed twice in FACS buffer (PBS, 2% FCS), and resuspended in 50 μL/5×10^5 cells and analysed on a Becton Dickinson LSRII FACS analyser using FlowJo (TreeStar) software.
The ability of PXD to induce apoptosis in proliferating T cells was further tested in a HLA-mismatched MLR. CFSE labelled responder cells were mixed with HLA-mismatched γ-irradiated stimulator cells in the presence of 0.1% DMSO (control) and 10 μM PXD on day 0. Responder cells were analysed for proliferation (CFSEIO) and viability (AV^−) at day 8 to allow exposure of proliferating responder cells to the drug for several days.

Data set [1] has as its system resting responder T cells. The data set can be described thus: Third party MLR of resting responder T cells sorted after PXD exposure. Type of data set: cell-based, human. The following applies: 10 μM PXD added day 5 of first MLR; sorted day 8, restimulated without PXD. As for the experimental part: as §3
The experiment described above was expanded by determining the effect of PXD exposure on responder T cells that had previously been exposed to, but not activated in a MLR. Two consecutive sets of MLRs were set up, mixing responder T cells and γ-irradiated stimulator cells on day 0, adding 10 μM PXD or 0.1% DMSO on day 5, and analysing proliferation and viability of responder T cells on day 8. […]

Data set [2] in a line: Sensitivity of cell types to PXD, viability by AV/PI staining. In kind it is cell-based. Conditions: human, normal bone marrow cells; normal BM, 10 μM PXD for 24 h; read-out: [% viable blasts after PXD exposure]/[% viable blasts after 0.1% DMSO exposure]. As to the method:
FIG. 6. Sensitivity of different cell types to PXD. Different cell types were incubated with 10 μM PXD for 24 h and viability was determined by AV/PI staining and reported as [% viable blasts after PXD exposure]/[% viable blasts after 0.1% DMSO exposure]. Percentage values are as follows: AML-derived HL60: 16±5 and HL60p°: 54±6, ALL-derived MOLT-4: 44±4, MM-derived U226: 59±6 and RPMI 8226: 12±4, primary AML blasts: 64±5, primary ALL blasts: 23±4, normal BM: 89±5, proliferating T cells: 69±4, resting T cells: 98±6. Results from cell lines are presented as the average±SEM of at least 3 separate experiments, results from bone marrow samples are presented as the average±SD of single experiments performed in duplicate.
Bone marrow samples from AML (n=22) and ALL (n=8) patients, containing more than 80% blasts, were selected from the tissue bank. […] was determined by AV/PI staining as [% viable blasts after PXD treatment]/[% viable blasts in control sample].
Cells were centrifuged at 1400 rpm in a Multifuge 3 s (Heraeus) for 4 min at room temperature, washed in phosphate buffered saline solution, pH 7.3 (PBS) and resuspended in Annexin V binding buffer. […] Staining was analyzed by flow cytometry using a Becton Dickinson Canto II FACS analyser using FlowJo (TreeStar) software.

For the molecule `Oc1ccc(C2=Cc3ccc(O)cc3OC2)cc1` [PXD, Isoflav-3-en-4′,7-diol], the figures for the IC50 in the data set with proliferating T cells and in the data set with resting T cells were 5.4 µM and more than 200 µM, respectively. In addition, in the data set with responder T cells, the “resting responder cell population (CD3+CFSEhiAV−)” value was “present in both control and PXD treated MLR”. In addition, in the data set with responder T cells (control MLR 46.5%), the “proliferating allogeneic T cells (CD3+CFSloAV− population)” value was found to be 2%. In addition, the “viability and functionality of non-proliferating T cells” value in data set [1] was “affects neither the viability nor the functionality”. Moreover, the viability at 24 h, 10 μM in data set [2] was 89 ± 5%.
